Test results from US20200278355A1, “CONJUGATED PROTEINS AND USES THEREOF” (THE SCRIPPS RESEARCH INSTITUTE, priority 2017, published 2020).

Key:
FLAG-NR0B1 (WT) = molecular target: T1, FLAG-NR0B1 (WT) (Homo sapiens, UniProt P51843); assay: Gel-based BPK-29yne labeling of NR0B1 and competition in HEK293T cells; type: cell-based; conditions: 3 h pre-treatment, then BPK-29yne 30 min
T1 construct: expressed in transfected cells; host or cells: HEK-293T, transient, pRK5-based vector
Protocol: 4×10^6 HEK-293T cells were seeded in poly-L-lysine coated 10 cm plates and transfected the next day with 5 μg of FLAG-NR0B1, FLAG-NR0B1-C274V, or FLAG-METAP2 cDNA in a pRK5-based expression vector. 48 h after transfection, cells were treated with indicated concentrations of BPK-29 or control compound BPK-27 for 3 h at 37° C. in DMEM containing 10% FBS and supplements as described in Cell Culture. BPK-29yne (5 μM) was then added and incubated for an additional 30 min at 37° C. FLAG immunoprecipitates were prepared as described above and following washes, the FLAG resin was resuspended in PBS (100 μL). To each sample, 12 μL of a freshly prepared “click” reagent mixture was added to conjugate the fluorophore to probe-labeled proteins. […] Samples were boiled for 5 min and proteins were resolved by SDS-PAGE (10% acrylamide), and visualized by in-gel fluorescence on a Bio-Rad ChemiDoc MP flatbed fluorescence scanner. Samples were also analyzed by immunoblotting. Recombinantly expressed FLAG-tagged protein levels were determined with the FLAG antibody (Sigma). Gel fluorescence and imaging was processed using Image Lab (v 5.2.1) software.

TXN = molecular target: T2, TXN (Homo sapiens, UniProt P10599); assay: isoTOP-ABPP of compound-treated H460 cells: TXN; type: cell-based; conditions: TXN C35; 40 μM
T2 construct: H460 cells or H460 cells expressing luciferase in a 10 cm plate were incubated with indicated compounds; endogenous in cells; host or cells: H460
Protocol: For analysis of NR0B1 ligands or control compound reactivity, H460 cells or H460 cells expressing luciferase in a 10 cm plate were incubated with indicated compounds in serum/dye-free RPMI for 3 hours at 37° C. Cells were washed once ice-cold PBS and lysed in 1% Triton X-100 dissolved in PBS with protease inhibitors (Sigma) by sonication. Samples were clarified by centrifugation for 10 min at 16,000×g. Lysate was adjusted to 1.5 mg ml^−1 in 500 μL.
Samples were labeled for 1 h at ambient temperature with 100 μM iodoacetamide alkyne (1, IA-alkyne, 5 μL of 10 mM stock in DMSO). Samples were conjugated by copper-catalyzed azide-alkyne cycloaddition (CuAAC) to isotopically labeled, TEV-cleavable tags (TEV-tags). Heavy CuAAC reaction mixtures was added to the DMSO-treated or shGFP control samples and light CuAAC reaction mixture was added to compound-treated or shNRF2 samples. The CuAAC reaction mixture consisted of TEV tags (light or heavy, 10 μL of 5 mM stocks in DMSO, final concentration=100 μM), 1 mM tris(2-carboxyethyl)phosphine hydrochloride (TCEP; fresh 50× stock in water, final concentration=1 mM), ligand (17× stock in DMSO:t-butanol 1:4, final concentration=100 μM) and 1 mM CuSO4 (50× stock in water, final concentration=1 mM). The samples were allowed to react for 1 h at which point the samples were centrifuged (16,000×g, 5 min, 4° C.). […]

T2 sequence (P10599 whole entry): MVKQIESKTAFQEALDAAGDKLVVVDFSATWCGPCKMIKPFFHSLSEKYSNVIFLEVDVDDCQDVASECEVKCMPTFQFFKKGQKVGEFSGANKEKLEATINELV
T1 sequence (P51843 whole entry): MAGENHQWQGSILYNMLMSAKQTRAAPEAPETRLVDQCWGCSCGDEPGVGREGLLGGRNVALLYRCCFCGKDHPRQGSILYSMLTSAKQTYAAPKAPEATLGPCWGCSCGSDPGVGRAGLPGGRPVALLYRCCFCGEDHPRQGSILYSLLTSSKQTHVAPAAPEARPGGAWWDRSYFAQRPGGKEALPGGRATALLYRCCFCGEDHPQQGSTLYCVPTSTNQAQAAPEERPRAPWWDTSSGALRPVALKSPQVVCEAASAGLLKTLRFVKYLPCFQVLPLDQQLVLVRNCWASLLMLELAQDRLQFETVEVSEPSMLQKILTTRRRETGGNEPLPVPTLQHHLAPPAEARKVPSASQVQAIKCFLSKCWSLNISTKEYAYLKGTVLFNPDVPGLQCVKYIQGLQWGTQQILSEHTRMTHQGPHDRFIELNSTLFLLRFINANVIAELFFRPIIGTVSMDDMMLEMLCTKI

## O=C(c1ccc(N2CCOCC2)cc1)N1CCCC(N(Cc2ccccc2)C(=O)CCl)CC1 (centres unmarked) [BPK-29, N-benzyl-2-chloro-N-(1-(4-morpholinobenzoyl)azepan-4-yl)acetamide]
FLAG-NR0B1 (WT)
  blockade of BPK-29yne labeling of NR0B1 by pre-treatment: blocked by pre-treatment with BPK-29 in a concentration dependent manner
TXN
  BPK-29-competed isoTOP-ABPP analysis: Yes (Competed defined as showing R value ≥ 3.0 at 40 μM of test compound)
